In ChEMBL document CHEMBL1201862, “PubChem BioAssay data set” (2004):
Where “and” joins values, the source holds several entries; their conditions need not be identical. Equal entries are not always repeated.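 The compound was tested at five concentrations on cells cultured in 96-well plates, with a 48-hour exposure period. At the GI50, growth is halved.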 Calls of active or inactive are those of the source. Rule as the data show it: active = GI50 up to about 1.1 µM and inactive = higher.

Columns and labels:
Assay in all cases: NCI-60 cell line screen, 48 h
NCI-H522 = test system: NCI-H522
DU-145 = test system: DU-145
OVCAR-4 = test system: OVCAR-4
SF-268 = test system: SF-268
SNB-75 = test system: SNB-75
M14 = test system: M14
A498 = test system: A498
OVCAR-5 = test system: OVCAR-5
HOP-62 = test system: HOP-62
Malme-3M = test system: Malme-3M
TK-10 = test system: TK-10
MOLT-4 = test system: MOLT-4
HT-29 = test system: HT-29
SR = test system: SR
MDA-MB-435 = test system: MDA-MB-435
MDA-MB-231 = test system: MDA-MB-231
SK-MEL-28 = test system: SK-MEL-28
IGROV-1 = test system: IGROV-1
786-0 = test system: 786-0
UACC-257 = test system: UACC-257
ACHN = test system: ACHN
NCI-H460 = test system: NCI-H460
SN12C = test system: SN12C
SK-OV-3 = test system: SK-OV-3
HCC 2998 = test system: HCC 2998
SF-295 = test system: SF-295
K562 = test system: K562
HL-60 = test system: HL-60
UACC-62 = test system: UACC-62
LOX IMVI = test system: LOX IMVI
BT-549 = test system: BT-549
RXF 393 = test system: RXF 393
SK-MEL-2 = test system: SK-MEL-2
PC-3 = test system: PC-3
EKVX = test system: EKVX
NCI-H23 = test system: NCI-H23
A549 = test system: A549
COLO 205 = test system: COLO 205
KM12 = test system: KM12
U-251 = test system: U-251
MDA-N = test system: MDA-N
Hs-578T = test system: Hs-578T
HCT-116 = test system: HCT-116
T47D = test system: T47D
UO-31 = test system: UO-31
NCI-H226 = test system: NCI-H226
CCRF-CEM = test system: CCRF-CEM
CAKI-1 = test system: CAKI-1
SNB-19 = test system: SNB-19
HOP-92 = test system: HOP-92
HCT-15 = test system: HCT-15
SW-620 = test system: SW-620
SF-539 = test system: SF-539
RPMI-8226 = test system: RPMI-8226
OVCAR-3 = test system: OVCAR-3
OVCAR-8 = test system: OVCAR-8
NCI/ADR-RES = test system: NCI/ADR-RES
MCF7 = test system: MCF7
SK-MEL-5 = test system: SK-MEL-5
LXFL 529 = test system: LXFL 529

For `O=C1c2cccc3cc4ccccc4c(c23)C(=O)N1CCCNCCNCCCN1C(=O)c2cccc3cc4ccccc4c(c23)C1=O`, the GI50 (NCI-H522) was < 0.01 µM (active), the GI50 (DU-145) was 0.475 µM (active) and the GI50 (OVCAR-4) was 0.129 µM (active). The GI50 (SF-268) was 0.196 µM (active), the GI50 (SNB-75) was 0.0263 µM (active) and the GI50 (M14) was 0.177 µM (active). The GI50 (A498) was 0.526 µM (active), the GI50 (OVCAR-5) was 0.257 µM (active) and the GI50 (HOP-62) was 0.0203 µM (active). The GI50 (Malme-3M) was 0.211 µM (active), the GI50 (TK-10) was 1 µM (active) and the GI50 (MOLT-4) was < 10 nM (active). The GI50 (HT-29) was 0.0104 µM (active), the GI50 (SR) was < 0.01 µM (active) and the GI50 (MDA-MB-435) was 0.0421 µM (active). For the same molecule, the GI50 (MDA-MB-231) was 0.189 µM (active), the GI50 (SK-MEL-28) was 0.239 µM (active) and the GI50 (IGROV-1) was 0.0139 µM (active). For the same molecule, the GI50 (786-0) was 0.02 µM (active), the GI50 (UACC-257) was 1.02 µM (active) and the GI50 (ACHN) was < 0.0227 µM (active). The GI50 (NCI-H460) was < 0.01 µM (active), the GI50 (SN12C) was < 0.01 µM (active) and the GI50 (SK-OV-3) was 0.31 µM (active). For the same molecule, the GI50 (HCC 2998) was 0.0964 µM (active), the GI50 (SF-295) was 0.0182 µM (active) and the GI50 (K562) was < 10 nM (active). The GI50 (HL-60) was < 17.1 nM (active), the GI50 (UACC-62) was 57.5 nM (active) and the GI50 (LOX IMVI) was < 10 nM (active). The GI50 (BT-549) was 1.24 µM (inactive), the GI50 (RXF 393) was 0.179 µM (active) and the GI50 (SK-MEL-2) was 0.338 µM (active). For the same molecule, the GI50 (PC-3) was 0.152 µM (active), the GI50 (EKVX) was 1.15 µM (inactive) and the GI50 (NCI-H23) was 0.0509 µM (active). The GI50 (A549) was 0.0133 µM (active), the GI50 (COLO 205) was 0.0316 µM (active) and the GI50 (KM12) was 0.106 µM (active). The GI50 (U-251) was 0.0264 µM (active), the GI50 (MDA-N) was 0.0546 µM (active) and the GI50 (Hs-578T) was 0.0635 µM (active). For the same molecule, the GI50 (HCT-116) was < 0.0191 µM (active), the GI50 (T47D) was 0.421 µM (active) and the GI50 (UO-31) was 0.33 µM (active). For the same molecule, the GI50 (NCI-H226) was 0.411 µM (active), the GI50 (CCRF-CEM) was < 10 nM (active) and the GI50 (CAKI-1) was 0.141 µM (active). The GI50 (SNB-19) was 0.217 µM (active), the GI50 (HOP-92) was 1 µM (active) and the GI50 (HCT-15) was 0.103 µM. For the same molecule, the GI50 (SW-620) was < 0.01 µM (active), the GI50 (SF-539) was 0.142 µM (active) and the GI50 (RPMI-8226) was < 10 nM (active). The GI50 (OVCAR-3) was 0.353 µM (active), the GI50 (OVCAR-8) was 0.0107 µM (active) and the GI50 (NCI/ADR-RES) was 0.314 µM (active). The GI50 (MCF7) was 0.0191 µM (active) and the GI50 (SK-MEL-5) was 0.128 µM (active).

In the case of `N#Cc1c(-c2ccccc2)cc(-c2ccccc2)n(C2OC(CO)C(O)C(O)C2O)c1=O` (configuration not stated), the GI50 (MOLT-4) is reported as 41 µM (inactive) and 38.2 µM (inactive), the GI50 (SR) is reported as 47.3 µM (inactive) and the GI50 (K562) is reported as 44.2 µM (inactive) and 49.7 µM (inactive). The GI50 (HL-60) was 43.9 µM (inactive) and 44.2 µM (inactive), the GI50 (UACC-62) was 86.5 µM (inactive) and 84.3 µM (inactive) and the GI50 (LOX IMVI) was 61.9 µM (inactive) and 63.1 µM (inactive). The GI50 (LXFL 529) was 68.4 µM (inactive) and 97.5 µM (inactive), the GI50 (CCRF-CEM) was 59.8 µM (inactive) and 47.1 µM (inactive) and the GI50 (RPMI-8226) was 69.7 µM (inactive) and 84.3 µM (inactive).

In the case of `CSc1c(CC(=O)Nc2ccc(Cl)cc2)n(Cc2ccccc2)c2ccccc12`, the GI50 (NCI-H522) is reported as 18.1 µM (inactive), the GI50 (DU-145) is reported as 38.5 µM (inactive) and the GI50 (OVCAR-4) is reported as 11.7 µM (inactive). For the same molecule, the GI50 (SF-268) was 12.9 µM (inactive), the GI50 (SNB-75) was 13 µM (inactive) and the GI50 (M14) was 58.2 µM (inactive). For the same molecule, the GI50 (A498) was 8.26 µM (inactive), the GI50 (OVCAR-5) was 29.6 µM (inactive) and the GI50 (HOP-62) was 21.2 µM (inactive). For the same molecule, the GI50 (Malme-3M) was 57.7 µM (inactive), the GI50 (TK-10) was 16 µM (inactive) and the GI50 (MOLT-4) was 43100 nM (inactive). For the same molecule, the GI50 (HT-29) was 39.4 µM (inactive), the GI50 (SR) was 23 µM (inactive) and the GI50 (MDA-MB-435) was 49.3 µM (inactive). For the same molecule, the GI50 (MDA-MB-231) was 14.8 µM (inactive), the GI50 (SK-MEL-28) was > 100 µM (inactive) and the GI50 (IGROV-1) was 26.5 µM (inactive). For the same molecule, the GI50 (786-0) was 11.3 µM (inactive), the GI50 (UACC-257) was 24.8 µM (inactive) and the GI50 (ACHN) was 24.7 µM (inactive). The GI50 (NCI-H460) was 25.5 µM (inactive), the GI50 (SN12C) was 32 µM (inactive) and the GI50 (SK-OV-3) was 41.4 µM (inactive). The GI50 (HCC 2998) was 19.5 µM (inactive), the GI50 (SF-295) was 62.7 µM (inactive) and the GI50 (K562) was 28000 nM (inactive). For the same molecule, the GI50 (HL-60) was > 100000 nM (inactive), the GI50 (UACC-62) was 18100 nM (inactive) and the GI50 (LOX IMVI) was 38000 nM (inactive). For the same molecule, the GI50 (BT-549) was 15.1 µM (inactive), the GI50 (RXF 393) was 12.8 µM (inactive) and the GI50 (SK-MEL-2) was 14.2 µM (inactive). The GI50 (PC-3) was 11 µM (inactive), the GI50 (EKVX) was 12.1 µM (inactive) and the GI50 (NCI-H23) was 29.1 µM (inactive). The GI50 (A549) was 43.5 µM (inactive), the GI50 (COLO 205) was 44.6 µM (inactive) and the GI50 (KM12) was > 100 µM (inactive). For the same molecule, the GI50 (U-251) was 11.6 µM (inactive), the GI50 (MDA-N) was 76.4 µM (inactive) and the GI50 (Hs-578T) was 14.4 µM (inactive). The GI50 (HCT-116) was 23.9 µM (inactive), the GI50 (T47D) was 12.1 µM (inactive) and the GI50 (UO-31) was 34.3 µM (inactive). The GI50 (NCI-H226) was 20.8 µM (inactive), the GI50 (CCRF-CEM) was 40300 nM (inactive) and the GI50 (CAKI-1) was 22.8 µM (inactive). The GI50 (SNB-19) was 46.9 µM (inactive), the GI50 (HOP-92) was 13.7 µM (inactive) and the GI50 (HCT-15) was 30.5 µM. For the same molecule, the GI50 (SW-620) was > 100 µM (inactive), the GI50 (SF-539) was 3 µM (inactive) and the GI50 (RPMI-8226) was 67500 nM (inactive). For the same molecule, the GI50 (OVCAR-3) was > 100 µM (inactive), the GI50 (OVCAR-8) was 12.3 µM (inactive) and the GI50 (NCI/ADR-RES) was 19.4 µM (inactive). The GI50 (MCF7) was 18.6 µM (inactive) and the GI50 (SK-MEL-5) was 29.9 µM (inactive).
